Structures can show the parent of a compound that is named as a salt. Bounds are passed on as bounds.

The test system of this experiment is ileum segments. Kind of experiment: Guinea Pig Ileum Coaxial Stimulation. It counts as tissue-based. The settings on record: Cavia porcellus, 5 min; concentration of 3.10^-9 M; five minutes after administration versus before; submaximal electrical stimulation (80% of maximal response); read-out: increase of the amplitude of the twitch response. How it is done: Example 10 : Guinea Pig Ileum Coaxial Stimulation. Dunkin Hartley guinea-pigs of both sexes (body weight ± 500 g) were killed by decapitation. The ileum was removed and cleansed with warmed and oxygenated Krebs-Henseleit solution. Non-terminal, intact ileum segments, 4.5 cm long, of the guinea pig were vertically suspended with a preload of 1 g in 100 ml Krebs-Henseleit solution (37.5°C), gassed with a mixture of 95% O2 and 5% CO2. Transmural excitation was applied over the whole length of the ileum segment by means of two platinum electrodes, the anode threaded through the lumen of the ileum, the cathode in the bathing solution. The preparation was excited with single rectangular […] [1 msec; 0.1 Hz; submaximal response (current leading to 80% of maximal reponse)] from a progammable stimulator. Contractions were measured isometrically. During the stabilization period of 30 min, the strips were repeatedly stretched to a tension of 2g, in order to obtain a steady state tension of lg. Before starting the electrical stimulation, a cumulative dose response curve of acetylcholine was given. The electrical stimulation was started at supramaximal current to determine the maximal amplitude of the twitch responses. When these responses were stable, a submaximal stimulation to obtain 80% of the maximal responses was given until the twitch responses were constant for at least 15 min, whereafter a single dose of the test compound was added to the bath fluid. The amplitude of the twitch response five minutes after the administration of the test compound is compared with the amplitude before the administration of the test compound.
Turning to `Nc1c(Cl)cc(C(=O)OC2CCN(CCC3CCCO3)CC2)c2c1CCO2` (racemic) [Compound 36, 1-[2-(tetrahydro-2-furanyl)ethyl]-4-piperidinyl 4-amino-5-chloro-2,3-dihydro-7-benzofurancarboxylate], the activation at 0.003 µM was greater than 5%. For the compound `COC1CN(CCCC2(C)OCCO2)CCC1OC(=O)c1cc(Cl)c(N)c2c1OCC2` (stereo not shown) [Compound 46], the activation at 0.003 µM was greater than 5%.

As to `CCn1c(=O)n(CCN2CCC(OC(=O)c3cc(Cl)c(N)c4c3OCC4)CC2)c2ccccc21` [Compound 1], the activation at 0.003 µM was greater than 5%. The value for `Cc1nccnc1NCCN1CCC(OC(=O)c2cc(Cl)c(N)c3c2OCC3)CC1` [Compound 39, 1-[2-[(3-methyl-2-pyrazinyl)amino]ethyl]-4-piperidinyl 4-amino-5-chloro-2,3-dihydro-7-benzofurancarboxylate] was greater than 5%. `Nc1c(Cl)cc(C(=O)OC2CCN(CCOCCO)CC2)c2c1CCO2` [Compound 14, 1-[2-(2-hydroxyethoxy)ethyl]-4-piperidinyl 4-amino-5-chloro-2,3-dihydro-7-benzo-furancarboxylate]: the activation at 0.003 µM was greater than 5%. `COCCCN1CCC(OC(=O)c2cc(Cl)c(N)c3c2OCC3)CC1` [Compound 15, 1-(3-methoxypropyl)-4-piperidinyl 4-amino-5-chloro-2,3-dihydro-7-benzofuran-carboxylate]: the activation at 0.003 µM is greater than 5%. To `CCN1CCC(OC(=O)c2cc(Cl)c(N)c3c2OC(C)(C)C3)CC1` [Compound 16] belongs greater than 5%. To `Nc1c(Cl)cc(C(=O)OC2CCN(CCCC3CCCO3)CC2)c2c1CCO2` (racemic) [Compound 35] belongs greater than 5%. Consider `CC(=O)CCCN1CCC(OC(=O)c2cc(Cl)c(N)c3c2OCC3)CC1` [Compound 8, 1-(4-oxopentyl)-4-piperidinyl 4-amino-5-chloro-2,3-dihydro-7-benzofurancarboxylate], for which the activation at 0.003 µM was greater than 5%. The value for `Nc1c(Cl)cc(C(=O)OC2CCN(CCCn3nc(Cl)ccc3=O)CC2)c2c1CCO2` [Compound 7, 1-[3-(3-chloro-6-oxo-1(6H)-pyridazinyl)propyl]-4-piperidinyl 4-amino-5-chloro-2,3-dihydro-7-benzofurancarboxylate] was greater than 5%; that for `CC(C)OCCCN1CCC(OC(=O)c2cc(Cl)c(N)c3c2OCC3)CC1` [Compound 4, 1-[3-(1-methylethoxy)propyl]-4-piperidinyl 4-amino-5-chloro-2,3-dihydro-7-benzofurancarboxylate monohydrochloride] was greater than 5%; that for `Nc1c(Cl)cc(C(=O)OC2CCN(CC3CC3)CC2)c2c1CCO2` [Compound 34] was greater than 5%.

Regarding `COC1CN(CCCn2nc(Cl)ccc2=O)CCC1OC(=O)c1cc(Cl)c(N)c2c1OCC2` (stereo not shown) [Compound 50], the activation at 0.003 µM was greater than 5%. To `CCOC(=O)CCCN1CCC(OC(=O)c2cc(Cl)c(N)c3c2OCC3)CC1` [Compound 33, ethyl 4-[[(4-amino-5-chloro-2,3-dihydro-7-benzofuranyl)carbonyl]oxy]-1-piperidinebutanoate] belongs greater than 5%. With `CC1(C)CCc2c(N)c(Cl)cc(C(=O)OC3CCN(CC4CCCO4)CC3)c2O1` (racemic) [Compound 32, 1-[(tetrahydro-2-furanyl)methyl]-4-piperidinyl 5-amino-6-chloro-3,4-dihydro-2,2-dimethyl-2H-1-benzopyran-8-carboxylate], the activation at 0.003 µM is greater than 5%. In the case of `CC1(CCCN2CCC(OC(=O)c3cc(Cl)c(N)c4c3OCC4)CC2)OCCO1` [Compound 6, 1-[3-(2-methyl-1,3-dioxolan-2-yl)propyl]-4-piperidinyl 4-amino-5-chloro-2,3-dihydro-7-benzofurancarboxylate], the activation at 0.003 µM is greater than 5%.

Values taken from patent publication EP0784620B1, “N-SUBSTITUTED PIPERIDINYL BICYCLIC BENZOATE DERIVATIVES” (JANSSEN PHARMACEUTICA N.V., priority 1994, dated 1996).
